# From US20210204568A1, “CBD-[…]” (THC PHARM GMBH THE HEALTH CONCEPT, priority 2014, published 2021)
# Tested on: freely moving rats
# Experiment: Electropharmacogram (EEG spectral power and physical activity) of freely moving rats after a CBD liquid formulation
# Format: in vivo, rat
# Method: FIGS. 1 to 3 show electropharmacograms from electroencephalography (EEG) of adult rats (>3 months old), wherein a dosage of 1 mg/kg (body weight) (FIG. 1), 5 mg/kg (body weight (FIGS. 2), and 15 mg/kg (body weight) (FIG. 3) cannabidiol was administered in the form of a liquid formulation.
# Under general anesthesia, four depth electrodes were implanted into the prefrontal cortex, the hippocampus, the striatum, and the reticular formation of the rats. From the head of the rats, signals are wirelessly transmitted by radio to a computer. At the same time, the physical activity is measured.
# The signals are subjected to a frequency analysis, for example using the fast Fourier transform (FFT), and the frequency content of a signal is determined. In the case of EEG data, the spectrum is divided into multiple regions, which historically are denoted by delta, theta, alpha and beta.
# After the division into seven frequency ranges ((1) to (7), see FIGS. 1-3), the changes in the electric output after administration of a liquid formulation according to the invention comprising cannabidiol can be quantified and, taking the signals of the four brain regions into consideration, a specific change pattern, referred to as the “electropharmacogram (supra)”, is obtained (Dimpfel W., Pharmacological classification of herbal extracts by means of comparison to spectral EEG signatures induced by synthetic drugs in the freely moving rat. Journal of Ethnopharmacology 2013, 149, 583-589).
# Time-dependent progression of the electric output (“spectral power”) (ordinate) in percent from the 45-minute long pre-drug base line (values) in four brain regions of freely moving rats in the presence of a vehicle (4 ml/kg). The frequency ranges are depicted as bars on the abscissa, specifically delta (1), theta (2), alpha1 (3), alpha2 (4), beta1a (5), beta1b (6) and gamma spectral power (7) from left to right, depending on the named brain region, The statistical significance is represented in stars compared to the control group (vehicle): *=p<0.05; **=p<0.01.
# [1] = dosage of 1 mg/kg to 5 mg/kg, adult rats
# [2] = high dosages, 5 or 15 mg/kg (body weight)
smiles,measurement,setting,value
"C=C(C)[C@@H]1CCC(C)=C[C@H]1c1c(O)cc(CCCCC)cc1O [CBD, 2-[1R-3-methyl-6-(1-methylethenyl]--cyclohexen-1-yl]-5-pentyl-1,3-benzenediol]",duration for which the specific increase in gamma spectral power can be observed,[1],at least 4 hours
same,gamma spectral power in the hippocampus,[1],not at all
same,gamma spectral power within the striatum,"dosage of 1 mg/kg to 5 mg/kg, adult rats, FIG. 1",increase
same,gamma spectral power,"dosage of 15 mg/kg, adult rats, FIG. 3",no specific increase
same,EEG pattern or electropharmacogram compared with drug classes,[2],corresponds to that of certain antidepressants and analgesic drugs
same,activity index,[2],significant decrease
same,effect according to the electropharmacogram,"high dosages, 5 or 15 mg/kg (body weight), FIGS. 2 and 3",sedating effect
same,effect according to the electropharmacogram,"lowest dosage, less than 5 mg/kg, preferably 1 mg/kg (body weight)",activating and invigorating effect
